The nature of assay [1]: Overall antioxidant power.
Assay [2] in a line: Antiradical activity, trapping of the free radical DPPH. The assay is classed as biochemical. Conditions: fixed concentration of 0.44 mg/ml ascorbic acid eq; tested in combination with Mg(OH)2 in the proportions present in the powder of the invention. (Loss of DPPH colour is used to gauge radical scavenging.)

The values below come from patent US10165789B2, “Acerola powder for use as a substitute for ascorbic acid in the agri-food field” (DIANA NATURALS, priority 2012, dated 2019).

Marks after values point to notes of the source that are not given here.

In the case of `O=C1O[C@H]([C@@H](O)CO)C(O)=C1O` [Ascorbic acid], the Overall antioxidant power in assay [1] is reported as 34 g/100 g of product in ascorbic acid eq. Also, the “Antiradical activity (% of trapping of the free radical DPPH)” value in assay [2] was 70.6* %.
